Assay results published in patent US20150274735A1, “USE OF A TETRASUBSTITUTED PYRAZOLO[4, 3-D]PYRIMIDINE COMPOUND FOR TREATING DIABETIC NEPHROPATHY” (priority 2012, published 2015).
“Also recorded” adds a separate entry of the source.

Legend:
[1] = Single-dose toxicity/toxicokinetic study of polymorph forms in rats; format: in vivo; details: equivalent doses 100 and 300 mg/kg
[2] = Single-dose toxicity/toxicokinetic study of polymorph forms in dogs; format: in vivo; details: equivalent dose 100 mg/kg
Pharmacokinetics in rats = format: in vivo, rat
Description: (§1) For toxicokinetic studies, this method was validated over a concentration range of 10 to 1000 ng/mL for a 50 μL plasma sample. Radiometric methods were used to measure [^14C]

[3] = Tissue distribution study in rats, radio labeled compound; format: in vivo, rat; details: radio labeled Example 1
[4] = system: isolated rat aortic rings; experiment: Aortic ring relaxation (rat); details: read-out: Aortic ring vasorelaxation EC50
dog Purkinje fiber = experiment: Dog Purkinje fiber assay; details: up to 10 μM (4.77 μg/mL)
Excerpt: (§2) For in vivo studies, the oral route of exposure was used. Rats given diazepam or frusemide served as positive controls in the locomotor activity and fluid/electrolyte excretion studies, respectively. Dofetilide was used for assay validity or a positive control in the dofetilide and hERG assays, respectively. Positive controls or animals given positive controls were not assessed concurrently in the remaining studies as these studies utilized well-characterized models to evaluate safety parameters.

dogs = experiment: Cardiovascular - conscious dogs, hemodynamic and ECG parameters; format: in vivo, dog
Excerpt: as §2
These cardiovascular effects are consistent with cGMP elevation in vascular smooth muscle, resulting from inhibition of cGMP-specific PDE5.

[5] = system: major human cytochrome P450 enzymes; experiment: Inhibition of the major human cytochrome P450 enzymes; format: in vitro ADME
CYP2C9 = target: T1, CYP2C9 (Homo sapiens, UniProt P11712); experiment: CYP inhibition in human liver microsomes; format: in vitro ADME
T1 construct: was determined in human liver microsomes; from tissue; host or cells: human liver microsomes

mice = details: mouse, in vivo, 14 days
Rat Bone Marrow = experiment: Micronucleus assay in rat bone marrow; format: in vivo; details: 100, 300, 600 mg/kg/day
Description: (§3) Study designs and dose selection were consistent with International Conference on Harmonization and Organization for Economic Cooperation and Development guidelines for mutagenicity and clastogenicity assays. All in vitro tests were conducted with and without exogenous metabolic activation using concentrations up to those limited by cytotoxicity or insolubility.

in vitro [6] = details: dog, plasma
rats [7] = experiment: Pulmonary function - rat, respiratory parameters; format: in vivo; details: oral, up to 300 mg/kg
Description: (§5) For in vivo studies, the oral route of exposure was used. Rats given diazepam or frusemide served as positive controls in the locomotor activity and fluid/electrolyte excretion studies, respectively. […] Positive controls or animals given positive controls were not assessed concurrently in the remaining studies as these studies utilized well-characterized models to evaluate safety parameters.

[8] = target: PDE6 enzyme (human retinal cone) (Homo sapiens, UniProt P51160); experiment: PDE6 enzyme (human retinal cone) inhibition; format: biochemical
Chain of PDE6 enzyme (human retinal cone) (P51160 whole entry): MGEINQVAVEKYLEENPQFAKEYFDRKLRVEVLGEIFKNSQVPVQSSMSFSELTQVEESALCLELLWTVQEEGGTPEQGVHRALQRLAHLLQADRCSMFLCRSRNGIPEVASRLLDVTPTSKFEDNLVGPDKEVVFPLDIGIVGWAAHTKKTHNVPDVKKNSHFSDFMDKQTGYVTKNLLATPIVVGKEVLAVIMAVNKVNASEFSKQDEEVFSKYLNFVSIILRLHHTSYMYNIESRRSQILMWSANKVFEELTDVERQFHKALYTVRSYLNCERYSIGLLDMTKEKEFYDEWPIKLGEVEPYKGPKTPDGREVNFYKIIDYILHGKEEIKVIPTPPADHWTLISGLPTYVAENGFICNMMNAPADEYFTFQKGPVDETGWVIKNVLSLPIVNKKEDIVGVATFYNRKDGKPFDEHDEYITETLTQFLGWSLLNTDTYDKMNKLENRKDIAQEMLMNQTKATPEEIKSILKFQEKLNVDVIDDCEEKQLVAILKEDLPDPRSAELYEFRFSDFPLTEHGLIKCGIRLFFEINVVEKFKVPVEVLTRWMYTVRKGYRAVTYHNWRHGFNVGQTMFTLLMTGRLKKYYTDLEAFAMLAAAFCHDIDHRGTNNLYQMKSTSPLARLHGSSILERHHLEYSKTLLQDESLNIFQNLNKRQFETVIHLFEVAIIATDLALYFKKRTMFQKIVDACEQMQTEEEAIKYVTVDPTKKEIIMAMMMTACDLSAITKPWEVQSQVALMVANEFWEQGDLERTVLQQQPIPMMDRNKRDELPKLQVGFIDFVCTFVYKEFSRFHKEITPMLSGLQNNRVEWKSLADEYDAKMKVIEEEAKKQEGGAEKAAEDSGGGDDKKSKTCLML

CYP2D6 = target: T2, CYP2D6 (Homo sapiens, UniProt P10635); experiment: CYP inhibition in human liver microsomes; format: in vitro ADME
T2 construct: was determined in human liver microsomes; from tissue; host or cells: human liver microsomes
T2 sequence (P10635 whole entry): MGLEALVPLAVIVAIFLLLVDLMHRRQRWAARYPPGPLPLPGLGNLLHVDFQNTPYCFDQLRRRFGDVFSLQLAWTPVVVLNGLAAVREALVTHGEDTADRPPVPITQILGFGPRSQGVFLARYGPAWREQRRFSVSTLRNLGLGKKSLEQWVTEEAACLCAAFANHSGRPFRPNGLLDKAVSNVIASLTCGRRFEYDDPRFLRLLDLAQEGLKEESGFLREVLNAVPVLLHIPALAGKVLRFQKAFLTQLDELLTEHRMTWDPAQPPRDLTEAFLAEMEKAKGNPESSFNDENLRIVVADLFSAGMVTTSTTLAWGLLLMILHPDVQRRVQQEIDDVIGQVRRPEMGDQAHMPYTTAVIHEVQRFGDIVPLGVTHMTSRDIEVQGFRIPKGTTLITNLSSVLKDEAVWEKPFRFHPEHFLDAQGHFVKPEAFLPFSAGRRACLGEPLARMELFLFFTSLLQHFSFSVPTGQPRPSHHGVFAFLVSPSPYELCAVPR

rats [9] = experiment: Central nervous system - rat, locomotor activity; format: in vivo; details: oral, up to 300 mg/kg
Description: as §5

[10] = Excretion of total radioactivity in dogs; format: in vivo, dog
Description: as §1

rat PDE5 = target: T3, rat PDE5 (Rattus norvegicus, UniProt O54735); experiment: PDE5 enzyme (rat platelet) inhibition; format: biochemical; details: rat platelet-derived enzyme
T3 construct: rat and dog platelet-derived PDE5; from tissue; host or cells: rat platelets

[11] = Excretion of total radioactivity in rats; format: in vivo, rat
Description: as §1

CYP3A4 = CYP3A4 (Homo sapiens, UniProt P08684); experiment: CYP inhibition in human liver microsomes; format: in vitro ADME; details: probe midazolam, testosterone and felodipine
Chain of CYP3A4 (P08684 whole entry): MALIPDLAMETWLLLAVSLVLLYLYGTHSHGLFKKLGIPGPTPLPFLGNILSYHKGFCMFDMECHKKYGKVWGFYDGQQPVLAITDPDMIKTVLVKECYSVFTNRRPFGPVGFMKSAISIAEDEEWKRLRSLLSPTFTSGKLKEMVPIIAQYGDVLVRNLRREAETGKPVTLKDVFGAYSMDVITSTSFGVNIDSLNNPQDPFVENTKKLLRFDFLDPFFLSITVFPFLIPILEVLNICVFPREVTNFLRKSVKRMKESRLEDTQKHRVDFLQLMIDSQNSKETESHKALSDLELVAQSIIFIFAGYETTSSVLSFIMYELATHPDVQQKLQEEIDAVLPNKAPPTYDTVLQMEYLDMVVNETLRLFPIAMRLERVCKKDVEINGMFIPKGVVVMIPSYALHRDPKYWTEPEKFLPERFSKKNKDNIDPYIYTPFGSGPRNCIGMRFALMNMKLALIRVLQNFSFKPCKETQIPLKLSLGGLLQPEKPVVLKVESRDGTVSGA

rats [12] = experiment: Renal - rat, fluid and electrolyte excretion; format: in vivo; details: oral, 3, 30, 300 mg/kg
Description: as §5

[13] = target: T4, PDE6 enzyme (human retinal rod) (Homo sapiens, UniProt P16499+P35913); experiment: PDE6 enzyme (human retinal rod) inhibition; format: biochemical
T4 construct: against human retinal cone and rod; from tissue; host or cells: human retina (rod)
T4 sequence (P16499 2-857 limits assumed): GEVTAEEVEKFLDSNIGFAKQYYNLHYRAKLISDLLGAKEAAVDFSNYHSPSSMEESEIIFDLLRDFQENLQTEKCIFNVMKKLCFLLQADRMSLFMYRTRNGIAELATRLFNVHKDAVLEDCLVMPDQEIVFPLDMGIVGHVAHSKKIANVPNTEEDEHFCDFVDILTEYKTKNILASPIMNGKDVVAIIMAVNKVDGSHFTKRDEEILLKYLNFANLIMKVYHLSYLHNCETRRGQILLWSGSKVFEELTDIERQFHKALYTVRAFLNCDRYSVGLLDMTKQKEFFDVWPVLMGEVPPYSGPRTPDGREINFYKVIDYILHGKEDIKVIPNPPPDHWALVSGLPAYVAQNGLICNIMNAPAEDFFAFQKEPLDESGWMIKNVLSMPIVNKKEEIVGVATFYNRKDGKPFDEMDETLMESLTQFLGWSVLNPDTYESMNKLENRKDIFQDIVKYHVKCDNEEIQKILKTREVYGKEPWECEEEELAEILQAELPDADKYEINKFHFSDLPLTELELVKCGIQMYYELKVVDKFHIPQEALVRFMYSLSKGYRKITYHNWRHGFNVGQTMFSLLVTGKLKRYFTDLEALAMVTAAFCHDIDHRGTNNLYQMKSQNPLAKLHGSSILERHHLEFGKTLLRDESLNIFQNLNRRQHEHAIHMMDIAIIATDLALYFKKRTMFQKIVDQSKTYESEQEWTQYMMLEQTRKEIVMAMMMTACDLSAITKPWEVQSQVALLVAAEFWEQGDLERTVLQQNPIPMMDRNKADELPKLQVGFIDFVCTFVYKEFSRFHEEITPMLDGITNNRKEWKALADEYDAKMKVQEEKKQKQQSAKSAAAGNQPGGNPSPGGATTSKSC
T4 sequence (P35913 2-851 limits assumed): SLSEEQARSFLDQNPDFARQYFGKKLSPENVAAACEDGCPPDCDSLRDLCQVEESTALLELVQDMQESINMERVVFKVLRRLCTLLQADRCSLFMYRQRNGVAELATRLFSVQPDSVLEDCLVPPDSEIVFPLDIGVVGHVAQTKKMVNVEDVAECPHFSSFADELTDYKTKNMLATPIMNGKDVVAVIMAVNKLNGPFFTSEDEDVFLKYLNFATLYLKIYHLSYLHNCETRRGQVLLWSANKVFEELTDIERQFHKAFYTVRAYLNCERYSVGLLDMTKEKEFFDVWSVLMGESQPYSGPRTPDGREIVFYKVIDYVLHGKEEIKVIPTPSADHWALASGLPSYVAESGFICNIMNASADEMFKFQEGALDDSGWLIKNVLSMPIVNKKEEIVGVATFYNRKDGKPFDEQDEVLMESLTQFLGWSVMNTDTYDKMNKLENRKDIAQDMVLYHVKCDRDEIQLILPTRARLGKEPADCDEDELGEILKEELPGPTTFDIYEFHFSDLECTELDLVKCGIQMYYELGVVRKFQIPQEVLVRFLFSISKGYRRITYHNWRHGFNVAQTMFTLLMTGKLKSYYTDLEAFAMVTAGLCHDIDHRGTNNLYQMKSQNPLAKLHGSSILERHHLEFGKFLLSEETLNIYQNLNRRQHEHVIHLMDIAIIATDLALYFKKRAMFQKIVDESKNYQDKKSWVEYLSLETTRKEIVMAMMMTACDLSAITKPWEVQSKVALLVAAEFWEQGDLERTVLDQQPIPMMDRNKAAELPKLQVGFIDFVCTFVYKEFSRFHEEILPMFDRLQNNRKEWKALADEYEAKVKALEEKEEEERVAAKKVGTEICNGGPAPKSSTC

rats [14] = details: rat, in vivo
CYP2C19 = target: T5, CYP2C19 (Homo sapiens, UniProt P33261); experiment: CYP inhibition in human liver microsomes; format: in vitro ADME
T5 construct: was determined in human liver microsomes; from tissue; host or cells: human liver microsomes
T5 sequence (P33261 whole entry): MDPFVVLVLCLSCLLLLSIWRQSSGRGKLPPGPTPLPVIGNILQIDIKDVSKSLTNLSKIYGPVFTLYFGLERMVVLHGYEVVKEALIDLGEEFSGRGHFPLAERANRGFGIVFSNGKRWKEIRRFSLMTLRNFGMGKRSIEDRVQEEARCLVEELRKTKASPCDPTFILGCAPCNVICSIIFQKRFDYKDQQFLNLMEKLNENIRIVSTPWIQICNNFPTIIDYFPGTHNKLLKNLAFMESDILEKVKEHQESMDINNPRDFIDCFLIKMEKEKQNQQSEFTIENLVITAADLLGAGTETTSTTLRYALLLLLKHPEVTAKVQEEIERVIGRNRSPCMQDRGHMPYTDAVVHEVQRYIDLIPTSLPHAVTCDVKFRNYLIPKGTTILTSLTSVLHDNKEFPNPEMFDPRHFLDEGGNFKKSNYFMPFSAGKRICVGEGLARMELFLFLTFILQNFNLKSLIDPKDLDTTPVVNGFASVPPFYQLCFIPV

[15] = target: T6, dog platelet-derived PDE5 (Canis lupus familiaris, UniProt O77746); experiment: PDE5 enzyme (dog platelet) inhibition; format: biochemical
T6 construct: rat and dog platelet-derived PDE5; from tissue; host or cells: dog platelets

clinical = details: male, human, in vivo
Description: (§4) Both single and multiple dose clinical studies were conducted with an oral solution or suspension ranging from single doses of 0.3 to 400 mg and multiple doses of 30 to 200 mg.
as §1

[16] = system: Salmonella typhimurium (Strains TA-1535, TA-1537) and Escherichia coli (Strain WP2uvrA); experiment: Microbial reverse mutation (mutagenicity); format: cell-based; set-up: dose or concentration left out as unconfirmed; details: (±S9)
Description: as §3

Pharmacokinetics in dogs = format: in vivo, dog
Description: as §1

in vitro [17] = details: rat, plasma
[18] = system: Human Peripheral Lymphocytes; experiment: In vitro cytogenetic assay, structural chromosome aberration; format: cell-based; details: 100, 350, 500 μg/mL (3 h − S9); 100, 200, 350 μg/mL (3 h + S9); 12.5, 50, 100 μg/mL (24 h − S9)
Description: as §3

healthy male volunteers = experiment: Human tolerability and safety, single and multiple dose clinical studies
Description: as §4

in vitro [19] = details: rabbit, plasma
in vitro [20] = details: human, plasma
[21] = system: spontaneously hypertensive rats (SHR); experiment: Antihypertensive efficacy in conscious SHR, oral dosing, radiotelemetry; format: in vivo, rat; details: for Effect on mean arterial pressure (MAP): 14-day dosing period
human PDE11 = human PDE11 (Homo sapiens, UniProt Q9HCR9); experiment: PDE11 enzyme (human) inhibition; format: biochemical
Chain of human PDE11 (Q9HCR9 whole entry): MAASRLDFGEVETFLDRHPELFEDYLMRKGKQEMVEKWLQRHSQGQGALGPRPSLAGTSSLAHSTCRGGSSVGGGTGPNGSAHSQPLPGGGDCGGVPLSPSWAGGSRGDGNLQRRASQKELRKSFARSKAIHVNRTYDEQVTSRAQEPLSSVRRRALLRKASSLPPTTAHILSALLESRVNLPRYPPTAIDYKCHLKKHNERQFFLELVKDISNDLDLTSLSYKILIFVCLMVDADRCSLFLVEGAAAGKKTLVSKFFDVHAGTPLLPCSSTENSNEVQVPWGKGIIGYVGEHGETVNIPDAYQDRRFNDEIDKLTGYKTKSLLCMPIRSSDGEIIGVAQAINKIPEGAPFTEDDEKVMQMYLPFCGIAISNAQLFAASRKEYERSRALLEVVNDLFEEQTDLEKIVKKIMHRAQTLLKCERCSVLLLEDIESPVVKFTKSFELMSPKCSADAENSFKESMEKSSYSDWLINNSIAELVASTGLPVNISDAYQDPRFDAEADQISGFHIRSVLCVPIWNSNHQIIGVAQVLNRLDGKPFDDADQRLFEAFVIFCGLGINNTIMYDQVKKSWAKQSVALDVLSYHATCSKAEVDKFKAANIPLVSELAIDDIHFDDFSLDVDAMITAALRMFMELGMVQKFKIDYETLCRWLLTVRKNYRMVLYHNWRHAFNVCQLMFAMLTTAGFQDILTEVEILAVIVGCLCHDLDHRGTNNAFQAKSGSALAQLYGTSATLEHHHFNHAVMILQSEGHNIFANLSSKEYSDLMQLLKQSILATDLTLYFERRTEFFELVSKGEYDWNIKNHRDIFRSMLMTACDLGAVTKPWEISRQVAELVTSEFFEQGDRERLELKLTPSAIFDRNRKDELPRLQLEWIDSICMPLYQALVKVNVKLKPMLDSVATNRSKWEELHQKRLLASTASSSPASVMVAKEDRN

CYP1A2 = CYP1A2 (Homo sapiens, UniProt P05177); experiment: CYP inhibition in human liver microsomes; format: in vitro ADME
[22] = system: Type II diabetic male patients; experiment: Microalbuminuria in Type II diabetic patients (FIG. 1); format: in vivo, human; details: 50 mg daily for 30 days (n=20), relative to baseline or placebo

CCOCCn1nc(C(=O)NS(C)(=O)=O)c2nc(N(C)CC)nc(Nc3cc(C)ccn3)c21 [Example 1 (polymorph form C), 1-(2-ethoxyethyl)-5-(ethyl(methyl)amino)-7-((4-methylpyridin-2-yl)amino)-N-(methylsulfonyl)-1H-pyrazolo[4,3-d]pyrimidine-3-carboxamide]
Systemic exposure, polymorph form C versus form B [1]: no differences in systemic exposure
Systemic exposure, polymorph form C versus form B [2]: no differences in systemic exposure

CCOCCn1nc(C(=O)NS(C)(=O)=O)c2nc(N(C)CC)nc(Nc3cc(C)ccn3)c21 [Example 1, 1-(2-ethoxyethyl)-5-(ethyl(methyl)amino)-7-((4-methylpyridin-2-yl)amino)-N-(methylsulfonyl)-1H-pyrazolo[4,3-d]pyrimidine-3-carboxamide]
Steady-state distribution volume (Pharmacokinetics in rats; rat): lower than total body water
bioavailability (Pharmacokinetics in rats; rat, plasma, po, rats, single dose, read-out: Absolute oral bioavailability): 82%
Half-life (in words) (Pharmacokinetics in rats; rats): long half-life values
Oral bioavailability (in words) (Pharmacokinetics in rats; rats): high
Plasma clearance (Pharmacokinetics in rats; rats, intravenous administration): low clearance; also recorded: lower that the liver-blood flow
Tissue distribution [3]: systemic distribution was generally in proportion to tissue-blood flow
EC50 [4]: 3.1 nM
Effects in dog Purkinje fiber assay (dog Purkinje fiber): No relevant effects
Effects on ECG parameters (dogs; dogs): not associated with any relevant effects
Effect on blood pressure and left ventricular end-diastolic pressure (dogs; dogs, 0.5, 1.5, and 5 mg/kg): small, but significant reductions
Inhibition of the major human cytochrome P450 enzymes [5]: no significant inhibition
IC50 (CYP2C9): > 30000 nM
Maximum non-lethal dose (mice): 2000 mg/kg
Micronucleus assay in rat bone marrow result (Rat Bone Marrow): Negative
fraction unbound (in vitro [6]): 0.007
Effects on pulmonary function (rats [7]): no adverse effects
IC50 [8]: 28.9 nM
IC50 (CYP2D6): > 30000 nM
Effects on locomotor activity (rats [9]): minor, nondose-related effects consisting of decreased rearing and center rearing
Administered dose (total radioactivity) eliminated in feces [10]: greater than 80%
Time within which the majority of the radioactivity was recovered [10]: ≤ 48 h
Total radioactivity recovered [10]: greater than 92%
IC50 (rat PDE5): 0.93 nM
Administered dose (total radioactivity) eliminated in feces [11]: greater than 80%
Time within which the majority of the radioactivity was recovered [11]: ≤ 48 h
Total radioactivity recovered [11]: greater than 92%
IC50 (CYP3A4): > 30000 nM
Effect on urine volume and electrolyte excretion (rats [12]): dose-related decrease
IC50 [13]: 63.6 nM
Single dose toxicity findings (rats [14]): No toxicity was observed
Maximum non-lethal dose (rats [14]; 14 days): 2000 mg/kg
IC50 (CYP2C19): > 30000 nM
IC50 [15]: 0.65 nM
Cmax (clinical; 30 mg): 1570 to 1630 ng/mL
half-life (clinical; Human Half-life): 11.9 to 15.7 h
half-life (clinical; Terminal half-life): 11.9 to 15.7 h
Mutagenicity result [16]: Negative
Steady-state distribution volume (Pharmacokinetics in dogs; dog): lower than total body water
bioavailability (Pharmacokinetics in dogs; dog, plasma, po, dogs, single dose, read-out: Absolute oral bioavailability): 77%
Cmax (Pharmacokinetics in dogs; dog, plasma, dogs, 5 mg/kg oral): 12800 ng/mL
Half-life (in words) (Pharmacokinetics in dogs; dogs): long half-life values
Oral bioavailability (in words) (Pharmacokinetics in dogs; dogs): high
Dog Cmax as multiple of human Cmax (Pharmacokinetics in dogs; dogs 5 mg/kg versus humans 30 mg dose): ~8 times
Plasma clearance (Pharmacokinetics in dogs; dogs, intravenous administration): low clearance; also recorded: lower that the liver-blood flow
fraction unbound (in vitro [17]): 0.007
Clastogenicity in vitro, structural chromosome aberration result [18]: Negative
Changes in vital signs, ECGs, laboratory safety test results, or physical examination results (healthy male volunteers; healthy male volunteers, any dose): No significant changes
Tolerability of multiple doses (healthy male volunteers; human, in vivo): well tolerated
Tolerability of single doses (healthy male volunteers; human, in vivo, po): well tolerated
Effects on ECG parameters (healthy male volunteers; humans, single and multiple doses): No clinically-relevant effects
fraction unbound (in vitro [19]): 0.012
fraction unbound (in vitro [20]): 0.007
Effect on mean arterial pressure (MAP) [21]: significant, sustained reduction in MAP
Effect on MAP in combination ([21]; combined with an ACE inhibitor): greater MAP lowering effects than the ACE inhibitor alone
Free plasma concentration giving significant MAP reduction, as multiple of rat PDE5 IC50 ([21]; daily oral dosing): approximately 7 fold
ECmax (maximally efficacious concentration) ([21]; oral dosing, unbound plasma concentration): ECmax = 6.5 nM
IC50 (human PDE11): 26.3 nM
IC50 (CYP1A2): > 30000 nM

CCCc1nn(C)c2c(=O)[nH]c(-c3cc(S(=O)(=O)N4CCN(C)CC4)ccc3OCC)nc12 [Sildenafil, sildenafil]
Microalbuminuria / albuminuria [22]: reduces albuminuria
Microalbuminuria / albuminuria ([22]; listed as sildenafil citrate): significantly decreased
half-life (clinical; Human Half-life): 3.7 h

CCOC(=O)[C@H](CCc1ccccc1)N[C@@H](C)C(=O)N1CCC[C@H]1C(=O)O [enalapril, reference compound]
Effect on mean arterial pressure (MAP) [21]: significant, sustained reduction in MAP
